According to patent publication US8613928B2, “Immunizing composition and method for inducing an immune response against the β-secretase cleavage site of amyloid precursor protein” (Ramot at Tel-Aviv University Ltd., priority 2002, dated 2013):
No end group written: not given here.

Tests used:
[1] = test system: amyloid anti-aggregating antibody; conditions: Frenkel et al. 1998, ELISA, read-out: IC50, competitive inhibition, anti-aggregating antibody*; cited from earlier work
[2] = test system: serum antibody raised against f88-EFRH; conditions: ELISA, read-out: IC50, competitive inhibition, MICE SERUM; cited from earlier work
[3] = test system: Balb/c mice; experiment: Immunization of Balb/c mice with MAP conjugated peptides, IgG titer by ELISA; type: in vivo; conditions: injection every two weeks with Freund's adjuvant, compared among 3 MAP peptides, FIG. 3
Experimental: 3 groups of Balb/c mice were injected with 3 different MAP (octa-branched) conjugated peptides: ISEVKMDA (residues 1-8 of SEQ ID NO:1, where residue 6 is Met), VKMDAEFRH (SEQ ID NO:5) and ISEVKLDA (residues 1-8 of SEQ ID NO:1, where residue 6 is Leu). The stock solution (2 mg/ml) was prepared as follows: 1000 μl of double distilled water (DDW), 665 μl of Freund's adjuvant (Complete Freund's adjuvant on first injection and Incomplete Freund's adjuvant on subsequent injections) and 335 μl of peptide stock solution. 300 μl of the vaccination solution (immunizing composition) was injected into each mouse every two weeks after initial injection.
96-well ELISA. plates were coated with 50 μl/well peptide stock solution at dilution of 1:500 in coating buffer (0.1M Na2CO3, pH 9.6) and incubated overnight at 4° C. The plates were washed with 2×PBS (0.05% TWEEN) and 2×PBS, blocked with 3% milk/PBS 180 μl/well and incubated for 1.5 hr at 37° C. Serum dilutions in 1% milk/PBS 50 μl/well were incubated for 1 hr at 37° C., then washed again with 50 μl/well α-mouse-IgG (H+L)HRP conjugated with dilution of 1:5000 in 1% milk/PBS incubated for 1 hr at 37° C. Additional washings contained PBS (0.05% TWEEN) and finally PBS. Reaction was done with 50 μl/well of 15 ml 0.05M citrate buffer with 30 mg OPD and 5 μl of 30% H2O2. […]

Substance | IC50 [1] [µM] | IC50 [2] [µM] | immune response after immunization [3]
Aβ(1-40): full length Aβ-peptide (1-40) | 0.8 | 3 | 
DAEFRH [residues 1-6 of Aβ] | 0.8 | 3 | 
DAEFRHD [residues 1-7 of Aβ] | 0.9 | 5 | 
DAEFRHDSG [residues 1-9 of Aβ] | 1 | 5 | 
EFRH [residues 3-6 of Aβ] | 3 | 6 | 
FRH (Amyloid-beta protein 40; UniProt P05067 675-677, looked up, fragment) [residues 4-6 of Aβ] | 3000 | ~1000 | 
MAP-ISEVKLDA: octavalent multiple antigenic peptide with ISEVKLDA (residues 1-8 of SEQ ID NO:1, residue 6 Leu), Swedish mutation β-secretase cleavage site epitope (also: octavalent multiple antigenic peptide on MAP core; listed as Homo sapiens) |  |  | highest immune response
